Experimental data from PMC10909654 (The Journal of Cell Biology, 2024).

Tests used:
FABP7 [1] = molecular target: T1, FABP7 (Homo sapiens, UniProt O15540); experiment: radioligand competition against 3H-cholesterol; format: binding; details: 1.5 µM cholesterol, pH 7.4, 25 °C, competitive
T1 sequence (O15540 2-132): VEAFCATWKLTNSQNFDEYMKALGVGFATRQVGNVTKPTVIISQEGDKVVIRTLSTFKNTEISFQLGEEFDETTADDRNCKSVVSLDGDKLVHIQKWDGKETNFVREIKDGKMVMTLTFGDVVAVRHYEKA

FABP7 [2] = molecular target: T1, FABP7; experiment: radioligand binding, Ni bead pull-down, scintillation counting
FABP8 [3] = molecular target: T2, FABP8 (Homo sapiens, UniProt P02689); experiment: as above; details: 1.5 µM ligand, 150 nM protein; labelled compound; pH 7.4, 25 °C
T2 sequence (P02689 2-132): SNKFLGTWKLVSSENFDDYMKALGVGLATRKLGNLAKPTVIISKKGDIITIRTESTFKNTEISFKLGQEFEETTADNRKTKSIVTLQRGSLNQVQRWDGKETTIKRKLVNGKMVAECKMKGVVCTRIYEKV

FABP3 [4] = molecular target: T3, FABP3 (Homo sapiens, UniProt P05413); experiment: as above; details: 1.5 µM ligand, 150 nM protein; labelled compound; pH 7.4, 25 °C
T3 sequence (P05413 2-133): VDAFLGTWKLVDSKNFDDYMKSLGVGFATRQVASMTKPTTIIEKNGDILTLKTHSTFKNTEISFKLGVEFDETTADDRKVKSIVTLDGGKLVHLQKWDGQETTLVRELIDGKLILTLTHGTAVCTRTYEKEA

FABP8 [5] = molecular target: T2, FABP8; details: 0.5 µM protein, 5 mol% DHE in donor liposomes, pH 7.2, 25 °C
FABP7 [6] = molecular target: T1, FABP7; details: 0.5 µM protein, 5 mol% DHE in donor liposomes, pH 7.2, 25 °C
FABP3 [7] = molecular target: T3, FABP3; details: 0.5 µM protein, 5 mol% DHE in donor liposomes, pH 7.2, 25 °C
FABP8 [8] = molecular target: T2, FABP8; experiment: radioligand binding, Ni bead pull-down, scintillation counting; details: 1.5 µM ligand, 150 nM protein; labelled compound; pH 7.4, 25 °C; remark: listed apart in the source
FABP3 [9] = molecular target: T3, FABP3; experiment: as above; details: 1.5 µM ligand, 150 nM protein; labelled compound; pH 7.4, 25 °C; remark: listed apart in the source

CCCCC/C=C\C/C=C\C/C=C\C/C=C\CCCC(=O)O [arachidonic acid]
relative 3H-cholesterol bound (FABP7 [1]; competitor 7.5 µM): all the tested fatty acids could compete with ^3H-cholesterol for FABP7 binding

CC(C)CCC[C@@H](C)[C@H]1CC[C@H]2[C@@H]3CC=C4C[C@@H](O)CC[C@]4(C)[C@H]3CC[C@]12C [cholesterol]
Kd (FABP7 [2]): 3.04 ± 0.78 µM
relative 3H-cholesterol bound (FABP8 [3]): FABP8 bound cholesterol as potently as FABP7
relative 3H-cholesterol bound (FABP3 [4]): FABP3 showed modestly yet significantly reduced binding affinity for cholesterol

CC(C)[C@@H](C)/C=C/[C@@H](C)[C@H]1CC[C@H]2C3=CC=C4C[C@@H](O)CC[C@]4(C)C3=CC[C@]12C [dehydroergosterol]
initial transport rate (FABP8 [5]): FABP3 and FABP8 could transfer DHE as efficiently as FABP7
initial transport rate (FABP7 [6]): The purified FABP7 protein promoted DHE transport
initial transport rate (FABP3 [7]): FABP3 and FABP8 could transfer DHE as efficiently as FABP7

CC/C=C\C/C=C\C/C=C\C/C=C\C/C=C\C/C=C\CCC(=O)O [docosahexaenoic acid]
relative 3H-cholesterol bound (FABP7 [1]; competitor 7.5 µM): all the tested fatty acids could compete with ^3H-cholesterol for FABP7 binding

CCCCCCCC/C=C\CCCCCCCC(=O)O [oleic acid]
relative 3H-oleic acid bound (FABP8 [8]): Both FABP3 and FABP8 could bind oleic acid avidly
relative 3H-oleic acid bound (FABP3 [9]): Both FABP3 and FABP8 could bind oleic acid avidly
relative 3H-cholesterol bound (FABP7 [1]; competitor 3.75-15 µM): oleic acid was the most potent ligand and showed a dose-dependent competing effect

CCCCCCCCCCCCCCCC(=O)O [palmitic acid]
relative 3H-cholesterol bound (FABP7 [1]; competitor 7.5 µM): all the tested fatty acids could compete with ^3H-cholesterol for FABP7 binding
